Patent US8685970B2, “Quinolines and related analogs as sirtuin modulators” (GlaxoSmithKline, LLC, priority 2008, dated 2014)

Biological target: T1, SIRT1 (Homo sapiens, UniProt Q96EB6)
T1 sequence (Q96EB6 1-747): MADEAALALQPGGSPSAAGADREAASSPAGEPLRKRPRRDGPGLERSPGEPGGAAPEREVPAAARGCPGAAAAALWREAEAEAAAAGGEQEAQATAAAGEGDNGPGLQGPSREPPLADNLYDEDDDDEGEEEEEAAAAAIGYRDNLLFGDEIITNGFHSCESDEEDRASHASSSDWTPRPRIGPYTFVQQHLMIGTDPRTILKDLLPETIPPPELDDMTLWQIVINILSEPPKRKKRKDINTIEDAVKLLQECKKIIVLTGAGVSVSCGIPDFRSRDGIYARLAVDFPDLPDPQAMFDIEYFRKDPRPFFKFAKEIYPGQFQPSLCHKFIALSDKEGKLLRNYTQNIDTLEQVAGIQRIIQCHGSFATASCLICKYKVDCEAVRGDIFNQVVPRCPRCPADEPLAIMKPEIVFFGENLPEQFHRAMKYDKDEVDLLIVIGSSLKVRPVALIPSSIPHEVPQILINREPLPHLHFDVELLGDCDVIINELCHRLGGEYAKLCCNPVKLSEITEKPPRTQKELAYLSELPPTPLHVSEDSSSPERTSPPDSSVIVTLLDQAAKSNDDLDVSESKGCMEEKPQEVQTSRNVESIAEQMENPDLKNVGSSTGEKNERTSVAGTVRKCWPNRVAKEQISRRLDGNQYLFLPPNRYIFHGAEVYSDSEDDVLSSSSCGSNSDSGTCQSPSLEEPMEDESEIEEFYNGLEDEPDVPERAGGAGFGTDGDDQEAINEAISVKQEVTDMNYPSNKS
Assay: Mass spectrometry based SIRT1 deacetylation assay (activation)
Format: biochemical
Settings: 10 nM SIRT1, 0.5 μM peptide substrate, 120 μM βNAD+, 25 min at 25° C.
Summary of the method: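 Recombinant N-His-tagged SIRT1 (E. coli BL21(DE3)), 10 nM, incubated 25 min at 25 °C with 0.5 μM biotin/5TMR-labelled acetyl-p53-derived 20-mer peptide and 120 μM βNAD+ in Tris-acetate pH 8 buffer with DTT and BSA. Formic acid stop; MS quantifies acetylated vs deacetylated peptide. EC1.5 = concentration giving 150% activation versus DMSO.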

% Fold Act. (percent maximum fold activation)	EC1.5 (concentration of test compound that results in 150% activation of SIRT1)	SMILES
A (Fold activation >200%)	A (EC1.5<1.0 uM)	O=C(Nc1ncnc2ccc(-c3cccc(C(F)(F)F)c3)nc12)c1cscn1 [Compound 259]
A (Fold activation >200%)	A (EC1.5<1.0 uM)	Cn1ccc(C(=O)Nc2cccc3ccc(-c4cccc(C(F)(F)F)c4)nc23)n1 [Compound 245]
–	C (EC1.5>25 uM)	Cc1csc(NC(=O)c2cccc3cnc(-c4cccnc4)nc23)n1 [Compound 295]
A (Fold activation >200%)	A (EC1.5<1.0 uM)	O=C(Nc1ncnc2ccc(-c3cccc(C(F)(F)F)c3)nc12)c1ccccn1 [Compound 310]
A (Fold activation >200%)	A (EC1.5<1.0 uM)	O=C(Nc1cccc(N2CCCC2)n1)c1cccc2ccc(-c3cccc(C(F)(F)F)c3)nc12 [Compound 320]
A (Fold activation >200%)	B (EC1.5 1-25 uM)	O=C(Nc1ncnc2ccc(-c3cccc(OC(F)(F)F)c3)nc12)c1cncs1 [Compound 309]
A (Fold activation >200%)	B (EC1.5 1-25 uM)	O=C(Nc1ncnc2ccc(-c3cccc(OC(F)(F)F)c3)nc12)c1ccc(CN2CCCC2)cc1 [Compound 232]
A (Fold activation >200%)	A (EC1.5<1.0 uM)	O=C(Nc1nccs1)c1cccc2ccc(-c3ccnc(C(F)F)c3)nc12 [Compound 304]
A (Fold activation >200%)	A (EC1.5<1.0 uM)	O=C(Nc1cccnc1)c1cccc2ccc(-c3cccc(C(F)F)c3)nc12 [Compound 260]
A (Fold activation >200%)	B (EC1.5 1-25 uM)	O=C(Nc1ncnc2ccc(-c3cccc(C(F)(F)F)c3)nc12)c1ccc(CN2CCCC2)cc1 [Compound 312]
A (Fold activation >200%)	A (EC1.5<1.0 uM)	Cc1cc(C)nc(NC(=O)c2cccc3ccc(-c4cccnc4)nc23)c1 [Compound 248]

Further lines, the molecule ahead of its results:

SMILES	% Fold Act. (percent maximum fold activation)	EC1.5 (concentration of test compound that results in 150% activation of SIRT1)
O=C(Nc1ccccc1)c1cccc2ccc(-c3cccc(C(F)(F)F)c3)nc12 [Compound 10]	A (Fold activation >200%)	B (EC1.5 1-25 uM)
O=C(Nc1ccccn1)c1cccc2ccc(-c3ccc(C(F)(F)F)cc3)nc12 [Compound 97]	–	C (EC1.5>25 uM)
Cc1ncccc1-c1ccc2cccc(NC(=O)c3cscn3)c2n1 [Compound 196]	A (Fold activation >200%)	A (EC1.5<1.0 uM)
O=S(=O)(Nc1cccc2ccc(-c3cccc(OC(F)(F)F)c3)nc12)N1CCCC1 [Compound 112]	–	C (EC1.5>25 uM)
O=C(Nc1cccc2ccc(-c3ccccc3O)nc12)c1cscn1 [Compound 174]	A (Fold activation >200%)	B (EC1.5 1-25 uM)
O=C(NC1CCOC1=O)c1cccc2ccc(-c3cccc(C(F)(F)F)c3)nc12 (stereo not shown) [Compound 38]	A (Fold activation >200%)	B (EC1.5 1-25 uM)
CN(C)Cc1cccc(-c2ccc3cccc(NC(=O)c4cscn4)c3n2)c1 [Compound 122]	A (Fold activation >200%)	A (EC1.5<1.0 uM)
FC(F)(F)c1cccc(-c2ccc3cccc(NCc4ccccn4)c3n2)c1 [Compound 136]	–	C (EC1.5>25 uM)
O=C(Nc1ccccn1)c1cccc2ccc(-c3cccc(N4CCOCC4)c3)nc12 [Compound 109]	A (Fold activation >200%)	A (EC1.5<1.0 uM)
O=C(Nc1cccc2ccc(-c3ccccc3)nc12)c1cccc(N2CCCC2)c1 [Compound 1]	–	C (EC1.5>25 uM)
O=C(Nc1cccc2ccc(-c3cccc(OC(F)(F)F)c3)nc12)c1cscn1 [Compound 7]	A (Fold activation >200%)	B (EC1.5 1-25 uM)
O=C(NCc1cccnc1)c1cccc2ccc(-c3cccc(C(F)(F)F)c3)nc12 [Compound 36]	A (Fold activation >200%)	C (EC1.5>25 uM)
O=C(Nc1nccs1)c1cccc2cc(C(F)(F)F)c(-c3ccccc3)nc12 [Compound 192]	–	C (EC1.5>25 uM)
O=C(Nc1nc(CN2CCOCC2)cs1)c1cccc2ccc(-c3cccnc3)nc12 [Compound 190]	A (Fold activation >200%)	A (EC1.5<1.0 uM)
O=C(Nc1cccnc1)c1cccc2ncc(-c3cccc(C(F)(F)F)c3)nc12 [Compound 124]	B (Fold Activation <200%)	A (EC1.5<1.0 uM)
O=C(Nc1cccc2ccc(-c3ccc(O)cc3)nc12)c1cscn1 [Compound 186]	A (Fold activation >200%)	B (EC1.5 1-25 uM)
O=C(Nc1cccnc1)c1cccc2cc(C(F)(F)F)c(-c3ccccc3)nc12 [Compound 193]	–	C (EC1.5>25 uM)
O=C(Nc1ccnc(Cl)c1)c1cccc2ccc(-c3cccc(C(F)(F)F)c3)nc12 [Compound 60]	A (Fold activation >200%)	A (EC1.5<1.0 uM)
O=C(Nc1cccc2ccc(-c3cccc(C(F)(F)F)c3)nc12)c1cccc(OC[C@@H](O)CO)n1 [Compound 203]	A (Fold activation >200%)	A (EC1.5<1.0 uM)
FC(F)(F)c1cccc(-c2ccc3cccc(CNC4CCOCC4)c3n2)c1 [Compound 144]	–	C (EC1.5>25 uM)
Cc1ccc(-c2ccc3cccc(NC(=O)c4cscn4)c3n2)cc1F [Compound 213]	B (Fold Activation <200%)	A (EC1.5<1.0 uM)
O=C(Nc1cccc2ccc(-c3cccc(C(F)(F)F)c3)nc12)c1cccc(OC[C@@H](O)CO)c1 [Compound 187]	A (Fold activation >200%)	A (EC1.5<1.0 uM)
Cc1cc(-c2ccc3cccc(C(=O)Nc4nccs4)c3n2)ccn1 [Compound 223]	–	C (EC1.5>25 uM)
O=C(Nc1cccc2ccc(-c3cccc(C(F)(F)F)c3)nc12)c1cocn1 [Compound 195]	B (Fold Activation <200%)	A (EC1.5<1.0 uM)
